According to patent US20230052740A1, “MODULATORS OF CIRCADIAN RHYTHMS AND USES THEREOF” (The Regents of the University of California, priority 2019, published 2023):
Where two headings read alike, the source gives them in different places.

How the values were obtained:
hMT1 [1] = target: T1, hMT1 (Homo sapiens, UniProt P48039); experiment: 2-[125I]-iodomelatonin competition binding, CHO cell membranes; conditions: read-out: Ki at MT1
Experimental: For receptor binding studies, '7447 was dissolved in 50% DMSO/50% ethanol for 13 mM stock solution, diluted 1/10 in 100% ethanol then 1/10 again in 50% ethanol/50% Tris-HCl buffer. Both '3384 and '4226 were dissolved in 100% ethanol for 13 mM stock solutions and then diluted 1/10 in 50% ethanol/50% Tris-HCl buffer. Further dilutions were done in Tris-HCl buffer.
Assays were incubated for 1 hour at 25° C. Bound radioligand was separated from freeby rapidvacuum filtration using glass microfiber filters (Whatman, Krackeler Scientific, Inc., Albany N.Y., USA) saturated in 0.5% polyethylenimine solution.
Affinity shifts or lack thereof with G protein inactivation indicate apparent efficacy (Lefkowitz, R. J. et al., J Biol Chem 251, 4686-4692, 1976) as ligands are classified as agonists (ΔpKi% MLT>20%), antagonists (ΔpKi% MLT<20%, >−20%), or inverse agonists (ΔpKi% MLT<−20%) accordingly.

hMT1 [2] = target: T1, hMT1; experiment: cAMP assay (GloSensor), isoproterenol-stimulated cAMP in HEK cells; assay type: cell-based; set-up: expressed in transfected cells; host or cells: HEK-T (HEK-293 T) cells, co-transfected with GloSensor DNA; conditions: for hMT1 pEC50: FIG. 3D-3F, transiently expressed receptor, isoproterenol-stimulated cAMP production; for inverse agonist efficacy: at MT1; for selectivity for MT1 over MT2: cAMP, inverse agonists
Experimental: HEK-293 T cells were maintained with complete Dulbecco's modified Eagle's medium (DMEM), which is composed of 10% fetal bovine serum (FBS), 2 mM L-glutamine, 100 units/ml penicillin G, 100 μg/ml streptomycin at 37° C. in the presence of 5% CO2
MT1 and MT2 receptors were tested using Promega's spilt luciferase based GboSensor cAMP biosensor technology. HEK-T cells were plated in 15 cm cell culture dish (at a density of 18 million cells) containing DMEM composed of 10% dialyzed FBS, 2 mM L-glutamine, 100 units/ml penicillin G, 100 μg/ml streptomycin for 4-6 hour. Then, cells were co-transfected with 8 μg of construct which encodes either MT1 or MT2 (de-Tangonized constructs) and […] of Glosensor DNA. Next day, transfected cells were seeded into poly-L-lysinecoated 384-well white clear bottom cell culture plates with complete DMEM with 1% dialized FBS at a density of 20,000 cells per well for another 24 h. The next day, cell medium were discarded and loaded with 20 μl of assay buffer (1×HBSS, 20 mM HEPES, pH 7.4, 0.1% BSA). To measure agonist activity of MT1 or MT2 receptor, 10 μl of test compound solution at 3× final concentration was added for 15 minutes followed by addition of 10 μl of luciferin/isoproterenol mixture (at a final concentration of 4 mM and 200 nM respectively) for another 15 mins for luminescence quantification. Then, plates were counted using SpectraMax luminescence reader (Molecular Device). Data were analyzed using GraphPad Prism 6.0.

C3H/HeN mice = experiment: Re-entrainment of running wheel activity after 6 h advance of dark onset (jet-lag model); assay type: in vivo; conditions: 30 μg/mouse s.c., in words; for rate of re-entrainment to the new light-dark cycle: 3 days, WT
Description: Male and female C3H/HeN (C3H) wild-type (WT), MT1 knockout (MT1KO), and MT2 knockout (MT2KO) mice (average 6.28 months) used in this study were raised in our breeding colony at University at Buffalo. […] Genotype was confirmed using tail samples at the end of each experiment and was verified periodically during the tenure of the colony. The strains of mice in our breeding colony were re-derived periodically by backcrossing with WT mice to reduce genetic drift.
Mice were group housed (3-5 per cage) with corncob bedding in polycarbonate translucent cages (30×19 cm) and maintained in a 14/10 light-dark (LD) cycle (Zeitgeber time 0 or ZT0 corresponds to Lights ON and ZT 14 to Lights OFF) in temperature and humidity controlled rooms with ad libitum access to food and water in the Laboratory Animal Facility at the University at Buffalo. Light levels were 200-300 lux at the level of the cage. Treatments and animal care performed in the dark were under a dim red safelight (15 watts, Kodak 1A filter) with illuminance of less than 3-5 lux (Benloucif, S. & Dubocovich, M. L. J Biol Rhythms 11, 113-125, (1996). All experimental procedures using mice were conducted in accordance with guidelines set forth by the National Institutes of Health and approved by the University at Buffalo Institutional Animal Care and Use Committee.
Circadian rhythm phase was determined for each mouse using the onset of running wheel activity defined as CT12 (Circadian Time 12). Running wheel activity was measured continuously via magnetic microswitches detecting wheel revolutions with a computer equipped with Clocklab data collection Software™ (Actimetrics: Wilmette, Ill.). All actigraphy data was visualized and analyzed using ClockLab™ and MATLAB™ software. All mice were individually housed in cages (33×15 cm) equipped with running wheels in light-tight ventilated cabinets with controlled temperature and LD cycles (Phenome Technologies: Skokie, Ill.). Male and female mice were housed in separate cabinets for all experiments.
Male and female C3H WT, MT1KO, and MT2KO mice (3 to 6 months) were maintained under a 12:12 LD cycle for at least 2 weeks prior experimental manipulations to allow stable entrainment to dark onset before advance of the LD cycle. Actigraphy data was recorded as described above and all experiment protocols performed as described (Dubocovich, M. L. et al., J Pineal Res 39, 113-120, 2005). On the first day of treatment, the dark onset was advanced 6 h. […] Post treatment, mice were given 14-20 days to re-entrain running wheel activity onsets to the new dark onset. Using exported running wheel activity onsets from actograms, onset hours advanced each day were determined by subtracting this value each day from the average onset of running wheel activity for 3 days prior to treatment for each mouse. Further, using the data from this calculation combined with visualization of actograms, the number of days to reach stable re-entrainment was determined for each mouse.
All statistical analyses as described in further detail for each experiment were conducted using GraphPad Prism 8™ (La Jolla, Calif.). All data sets were visualized for normality using QQ plots of predicted vs. actual residuals. Actigraphy data was generated for visualization blind to treatment prior to the quantification and statistical analysis stages. […] Data in FIGS. 4F & 4G were compared via a two-way ANOVA (3×2: genotype x treatment) with Tukey's post hoc analyses (P<0.05). […]

318 other GPCRs = experiment: PRESTO-Tango GPCR-ome counter-screen, agonist mode; assay type: cell-based; conditions: arrestin recruitment Tango, in words
Experimental: Screening of compounds in the PRESTO-Tango GPCR-ome was accomplished as previously described (Kroeze, supra). with several modifications. First, HTLA cells were plated in DMEM with 10% FBS and 10 U/mL penicillin-streptomycin. Next, the cells were transfected using an in-plate PEI method (Longo, P. A. et al., Methods Enzymol 529, 227-240, 2013). PRESTO-Tango receptor DNAs were resuspended in OptiMEM and hybridized with PEI prior to dilution and distribution to 384-well plates and subsequent addition to cells. After overnight incubation, drugs were added to cells without replacement of the medium. The remaining steps of the PRESTO-Tango protocol were followed as previously described.

[3] = Schild analysis, competitive antagonism of melatonin
[4] = inverse agonist, increase of basal cAMP, read-out: EC50 at MT1

T1 sequence (P48039 whole entry): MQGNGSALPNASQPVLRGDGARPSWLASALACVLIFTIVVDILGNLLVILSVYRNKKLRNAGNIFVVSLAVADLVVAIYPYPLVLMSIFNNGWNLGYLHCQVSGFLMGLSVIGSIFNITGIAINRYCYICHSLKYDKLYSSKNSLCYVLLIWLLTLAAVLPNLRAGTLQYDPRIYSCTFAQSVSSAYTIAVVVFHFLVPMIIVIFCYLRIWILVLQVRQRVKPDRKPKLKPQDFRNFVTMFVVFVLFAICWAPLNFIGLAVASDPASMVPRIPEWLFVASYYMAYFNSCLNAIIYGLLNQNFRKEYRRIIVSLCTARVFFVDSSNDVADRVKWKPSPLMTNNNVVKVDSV

SMILES	Ki (hMT1 [1]; in the absence of GTP)	Ki (hMT1 [1]; with GTP (100 μM))	hMT1 pEC50 (hMT1 [2])	hMT1 Schild slope (hMT1 [2]; [3])	inverse agonist efficacy (hMT1 [2])	selectivity for MT1 over MT2 (hMT1 [2])	EC50 (hMT1 [2]; [4])	rate of re-entrainment to the new light-dark cycle (C3H/HeN mice)	off-target agonist activity (318 other GPCRs)	other results
CC(C)c1ccc(CNc2cccc(-c3ncn[nH]3)c2)cc1 [ZINC157673384]	0.938 µM	0.063 µM	7.68±0.09	0.80±0.04	47%	30 fold	0.021 µM	decelerated re-entrainment	Neither of the two inverse agonists had significant activity against any of the 318 receptors	hMT1 Emax (hMT1 [2]; FIG. 3D-3E, normalized to isoproterenol-stimulated basal activity): −47±12%; hMT1 pA2 (hMT1 [2]; [3]): 7.9±0.1; MT1 % Emax (hMT1 [2]; Table 2, cell marked Inverse (inverse agonist)): 47 ± 12%; pEC50 MT1 (IA) (hMT1 [2]; Table 4, IA (inverse agonist)): 7.7
COc1ccc(Br)c(CNc2cccnc2)c1 [ZINC128734226]	–	–	6.83±0.17	–	–	–	–	–	–	Emax (hMT1 [2]; HEK293, FIG. 3F, normalized to maximal melatonin effect, read-out: hMT1 Emax): 79 ± 3%; Emax (hMT1 [2]; HEK293, Table 2, agonist, normalized to melatonin response, read-out: MT1 % Emax (converted)): 79%; Emax (hMT1 [2]; HEK293, Table 4, agonist, read-out: Emax % MT1): 48%; pIC50 MT1 (hMT1 [2]; Table 4, agonist): 6.8
Clc1ccc(CNc2cccc(-c3nnc[nH]3)c2)c(Br)c1 [ZINC555417447]	0.304 µM	0.0075 µM	7.39±0.10	0.98±0.03	62%	50 fold	0.041 µM	decelerated re-entrainment	Neither of the two inverse agonists had significant activity against any of the 318 receptors	Emax (hMT1 [2]; HEK293, FIG. 3D-3E, normalized to isoproterenol-stimulated basal activity, read-out: hMT1 Emax): -62 ± 13%; Emax (hMT1 [2]; HEK293, Table 2, cell marked Inverse (inverse agonist), read-out: MT1 % Emax (converted)): 62%; hMT1 pKB (hMT1 [2]; [3]): 7.4±0.1; EC50 (hMT1 [2]; Table 4, IA (inverse agonist), read-out: pEC50 MT1 (IA) (converted)): 0.0501 µM; effect on re-entrainment in MT1KO mouse (C3H/HeN mice; MT1KO): eliminated; effect on re-entrainment in MT2KO mice (C3H/HeN mice; MT2KO): greater deceleration
